Source: ChEMBL document CHEMBL5291721, “A preclinical secondary pharmacology resource illuminates target-adverse drug reaction associations of marketed drugs” (Nat Commun, 2023)

Assays:
[1] = molecular target: T1, 5-hydroxytryptamine receptor 1A (Homo sapiens, UniProt P08908)
T1 sequence (P08908 whole entry): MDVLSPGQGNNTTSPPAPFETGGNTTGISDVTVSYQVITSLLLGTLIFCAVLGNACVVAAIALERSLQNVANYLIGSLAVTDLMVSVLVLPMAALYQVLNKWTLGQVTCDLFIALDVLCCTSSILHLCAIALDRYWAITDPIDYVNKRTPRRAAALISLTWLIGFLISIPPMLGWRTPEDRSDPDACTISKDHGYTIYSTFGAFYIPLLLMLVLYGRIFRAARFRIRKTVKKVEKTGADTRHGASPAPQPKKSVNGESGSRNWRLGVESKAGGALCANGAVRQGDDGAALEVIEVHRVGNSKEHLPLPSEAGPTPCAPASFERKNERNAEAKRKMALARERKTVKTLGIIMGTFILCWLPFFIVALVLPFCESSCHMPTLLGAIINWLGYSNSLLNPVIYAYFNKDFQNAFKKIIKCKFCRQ

[2] = molecular target: T2, Alpha-1A adrenergic receptor (Homo sapiens, UniProt P35348)
T2 sequence (P35348 whole entry): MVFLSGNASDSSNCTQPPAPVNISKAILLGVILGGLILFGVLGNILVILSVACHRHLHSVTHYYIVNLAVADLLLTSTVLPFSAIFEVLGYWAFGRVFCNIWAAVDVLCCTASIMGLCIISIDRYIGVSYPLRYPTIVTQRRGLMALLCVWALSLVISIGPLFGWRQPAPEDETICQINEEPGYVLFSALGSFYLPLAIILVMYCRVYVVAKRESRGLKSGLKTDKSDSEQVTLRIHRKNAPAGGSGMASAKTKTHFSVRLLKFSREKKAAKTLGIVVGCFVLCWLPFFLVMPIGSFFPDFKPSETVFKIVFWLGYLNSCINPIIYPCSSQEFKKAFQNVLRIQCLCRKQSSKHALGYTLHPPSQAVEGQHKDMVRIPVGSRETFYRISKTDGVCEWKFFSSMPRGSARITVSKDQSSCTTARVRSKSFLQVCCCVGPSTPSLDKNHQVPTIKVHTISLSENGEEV

Progesterone receptor = molecular target: T3, Progesterone receptor (Homo sapiens, UniProt P06401)
T3 sequence (P06401 whole entry): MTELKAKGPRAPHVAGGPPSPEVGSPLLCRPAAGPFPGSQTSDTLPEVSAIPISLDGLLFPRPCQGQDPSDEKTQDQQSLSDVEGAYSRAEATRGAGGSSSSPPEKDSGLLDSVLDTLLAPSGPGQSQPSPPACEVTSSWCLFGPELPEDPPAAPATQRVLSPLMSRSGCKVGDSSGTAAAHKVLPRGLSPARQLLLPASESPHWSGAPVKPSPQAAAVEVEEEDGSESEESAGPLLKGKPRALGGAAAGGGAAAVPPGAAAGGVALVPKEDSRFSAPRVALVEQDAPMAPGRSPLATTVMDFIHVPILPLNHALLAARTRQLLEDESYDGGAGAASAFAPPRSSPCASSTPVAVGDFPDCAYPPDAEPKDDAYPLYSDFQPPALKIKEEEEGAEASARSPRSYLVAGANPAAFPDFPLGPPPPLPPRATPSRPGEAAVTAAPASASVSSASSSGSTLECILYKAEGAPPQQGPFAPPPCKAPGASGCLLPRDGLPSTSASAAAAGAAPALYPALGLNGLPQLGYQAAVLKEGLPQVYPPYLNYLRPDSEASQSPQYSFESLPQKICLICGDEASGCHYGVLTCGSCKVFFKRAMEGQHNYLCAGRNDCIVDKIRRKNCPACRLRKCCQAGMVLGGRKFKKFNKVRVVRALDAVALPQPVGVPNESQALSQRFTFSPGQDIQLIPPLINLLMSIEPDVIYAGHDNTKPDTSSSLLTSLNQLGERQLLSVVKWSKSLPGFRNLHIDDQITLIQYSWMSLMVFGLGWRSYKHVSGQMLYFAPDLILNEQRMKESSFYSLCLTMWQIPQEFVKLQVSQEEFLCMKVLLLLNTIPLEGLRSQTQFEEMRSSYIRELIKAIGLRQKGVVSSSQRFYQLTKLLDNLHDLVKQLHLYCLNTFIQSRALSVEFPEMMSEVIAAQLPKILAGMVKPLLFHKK

Glucagon receptor = Glucagon receptor (Homo sapiens, UniProt P47871)
Substance-P receptor = Substance-P receptor (Homo sapiens, UniProt P25103)
[3] = molecular target: Beta-3 adrenergic receptor (Homo sapiens, UniProt P13945)
[4] = molecular target: Gamma-aminobutyric acid receptor subunit alpha-1 (Rattus norvegicus, UniProt P62813)
[5] = molecular target: T4, Peroxisome proliferator-activated receptor gamma (Homo sapiens, UniProt P37231); format: functional
T4 sequence (P37231 whole entry): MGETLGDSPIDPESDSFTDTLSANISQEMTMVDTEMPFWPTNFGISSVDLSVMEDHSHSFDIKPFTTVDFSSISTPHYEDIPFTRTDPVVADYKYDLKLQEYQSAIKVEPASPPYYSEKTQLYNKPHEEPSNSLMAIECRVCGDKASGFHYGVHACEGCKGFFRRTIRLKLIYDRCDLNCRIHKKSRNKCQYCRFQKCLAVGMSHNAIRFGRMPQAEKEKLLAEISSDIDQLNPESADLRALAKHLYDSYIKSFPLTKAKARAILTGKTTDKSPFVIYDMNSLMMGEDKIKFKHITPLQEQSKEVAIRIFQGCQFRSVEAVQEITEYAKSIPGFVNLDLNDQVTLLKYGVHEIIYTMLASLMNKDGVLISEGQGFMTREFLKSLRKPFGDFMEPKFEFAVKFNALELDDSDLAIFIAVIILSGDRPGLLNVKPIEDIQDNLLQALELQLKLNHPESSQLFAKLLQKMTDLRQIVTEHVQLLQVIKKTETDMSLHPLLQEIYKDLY

[6] = molecular target: Gamma-aminobutyric acid receptor subunit alpha-1/alpha-2/beta-2/gamma-2 (Homo sapiens, UniProt P14867+P18507+P47869+P47870); format: functional, cell-based
Further: assay procedure not described here.

Sequence of Gamma-aminobutyric acid receptor subunit alpha-1 (P62813 whole entry): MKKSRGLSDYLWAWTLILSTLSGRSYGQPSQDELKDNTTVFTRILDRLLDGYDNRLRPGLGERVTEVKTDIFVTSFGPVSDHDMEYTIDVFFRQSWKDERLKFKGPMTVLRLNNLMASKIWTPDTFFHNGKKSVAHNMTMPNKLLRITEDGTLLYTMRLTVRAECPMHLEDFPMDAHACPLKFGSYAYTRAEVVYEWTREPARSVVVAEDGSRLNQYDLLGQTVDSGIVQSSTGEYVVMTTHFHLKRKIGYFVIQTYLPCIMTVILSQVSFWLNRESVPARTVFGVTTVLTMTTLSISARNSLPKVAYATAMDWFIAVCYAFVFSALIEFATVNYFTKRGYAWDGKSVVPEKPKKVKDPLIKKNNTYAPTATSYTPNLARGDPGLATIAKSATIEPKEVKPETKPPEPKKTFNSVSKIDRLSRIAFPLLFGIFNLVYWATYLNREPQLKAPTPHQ
Sequence of Beta-3 adrenergic receptor (P13945 whole entry): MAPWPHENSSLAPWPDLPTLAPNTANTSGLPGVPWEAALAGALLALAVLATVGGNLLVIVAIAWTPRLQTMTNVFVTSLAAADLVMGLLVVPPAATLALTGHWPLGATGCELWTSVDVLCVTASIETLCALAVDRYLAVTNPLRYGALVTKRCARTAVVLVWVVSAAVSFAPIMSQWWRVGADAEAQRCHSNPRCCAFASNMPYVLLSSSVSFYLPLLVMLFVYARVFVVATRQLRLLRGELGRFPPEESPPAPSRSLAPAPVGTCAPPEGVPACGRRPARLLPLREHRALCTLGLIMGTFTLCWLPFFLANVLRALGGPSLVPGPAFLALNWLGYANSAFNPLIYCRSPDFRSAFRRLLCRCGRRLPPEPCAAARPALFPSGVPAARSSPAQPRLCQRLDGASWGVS
Sequence of Gamma-aminobutyric acid receptor subunit alpha-1/alpha-2/beta-2/gamma-2 (P14867 whole entry): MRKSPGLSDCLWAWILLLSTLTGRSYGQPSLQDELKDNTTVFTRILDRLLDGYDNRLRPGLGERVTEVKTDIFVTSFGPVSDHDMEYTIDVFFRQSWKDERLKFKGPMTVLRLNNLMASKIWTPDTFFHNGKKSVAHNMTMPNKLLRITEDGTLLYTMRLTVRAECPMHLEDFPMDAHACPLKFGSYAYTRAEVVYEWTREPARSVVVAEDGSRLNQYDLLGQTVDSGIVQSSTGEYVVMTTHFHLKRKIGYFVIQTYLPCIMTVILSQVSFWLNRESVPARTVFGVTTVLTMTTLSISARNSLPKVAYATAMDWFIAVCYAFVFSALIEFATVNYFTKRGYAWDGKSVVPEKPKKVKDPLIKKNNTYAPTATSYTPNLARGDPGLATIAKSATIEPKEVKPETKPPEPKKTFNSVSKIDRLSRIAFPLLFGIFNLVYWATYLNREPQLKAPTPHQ
Sequence of Gamma-aminobutyric acid receptor subunit alpha-1/alpha-2/beta-2/gamma-2 (P47870 whole entry): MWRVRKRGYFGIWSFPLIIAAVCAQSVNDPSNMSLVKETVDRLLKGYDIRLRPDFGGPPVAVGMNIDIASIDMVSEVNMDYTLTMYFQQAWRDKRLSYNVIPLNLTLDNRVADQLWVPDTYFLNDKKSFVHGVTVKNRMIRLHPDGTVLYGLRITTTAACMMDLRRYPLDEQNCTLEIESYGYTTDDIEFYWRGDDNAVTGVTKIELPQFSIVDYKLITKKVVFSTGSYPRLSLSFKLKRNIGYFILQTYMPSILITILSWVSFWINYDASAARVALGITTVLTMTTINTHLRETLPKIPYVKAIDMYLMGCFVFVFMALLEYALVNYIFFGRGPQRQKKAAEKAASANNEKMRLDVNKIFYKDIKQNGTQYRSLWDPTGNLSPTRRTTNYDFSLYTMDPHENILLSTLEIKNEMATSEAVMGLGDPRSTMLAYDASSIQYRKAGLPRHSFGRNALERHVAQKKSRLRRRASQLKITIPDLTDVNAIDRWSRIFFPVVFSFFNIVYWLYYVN
Sequence of Gamma-aminobutyric acid receptor subunit alpha-1/alpha-2/beta-2/gamma-2 (P18507 whole entry): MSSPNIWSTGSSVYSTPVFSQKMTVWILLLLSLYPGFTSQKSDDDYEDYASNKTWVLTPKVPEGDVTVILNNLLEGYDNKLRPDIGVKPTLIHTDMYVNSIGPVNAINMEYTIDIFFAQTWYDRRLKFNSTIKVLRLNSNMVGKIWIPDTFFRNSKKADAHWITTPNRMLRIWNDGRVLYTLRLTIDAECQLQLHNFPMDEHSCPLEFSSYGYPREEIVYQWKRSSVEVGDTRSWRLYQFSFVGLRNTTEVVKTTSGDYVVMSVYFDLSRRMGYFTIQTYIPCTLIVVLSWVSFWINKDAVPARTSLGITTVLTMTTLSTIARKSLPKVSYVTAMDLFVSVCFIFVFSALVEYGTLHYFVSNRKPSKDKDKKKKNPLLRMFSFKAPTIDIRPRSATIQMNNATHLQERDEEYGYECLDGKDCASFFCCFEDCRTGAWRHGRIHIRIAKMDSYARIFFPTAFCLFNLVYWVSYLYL
Sequence of Gamma-aminobutyric acid receptor subunit alpha-1/alpha-2/beta-2/gamma-2 (P47869 whole entry): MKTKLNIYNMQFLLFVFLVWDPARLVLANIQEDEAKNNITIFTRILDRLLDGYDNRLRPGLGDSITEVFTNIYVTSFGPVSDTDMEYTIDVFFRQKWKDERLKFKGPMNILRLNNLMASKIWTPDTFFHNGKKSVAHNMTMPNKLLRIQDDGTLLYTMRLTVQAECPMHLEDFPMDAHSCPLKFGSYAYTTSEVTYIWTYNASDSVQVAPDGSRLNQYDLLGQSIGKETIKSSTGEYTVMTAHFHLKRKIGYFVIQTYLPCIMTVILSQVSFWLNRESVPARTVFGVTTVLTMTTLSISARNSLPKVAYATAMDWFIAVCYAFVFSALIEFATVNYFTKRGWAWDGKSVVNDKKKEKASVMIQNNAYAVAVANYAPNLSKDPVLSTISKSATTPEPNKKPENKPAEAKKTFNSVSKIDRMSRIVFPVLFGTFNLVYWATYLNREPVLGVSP
Sequence of Glucagon receptor (P47871 whole entry): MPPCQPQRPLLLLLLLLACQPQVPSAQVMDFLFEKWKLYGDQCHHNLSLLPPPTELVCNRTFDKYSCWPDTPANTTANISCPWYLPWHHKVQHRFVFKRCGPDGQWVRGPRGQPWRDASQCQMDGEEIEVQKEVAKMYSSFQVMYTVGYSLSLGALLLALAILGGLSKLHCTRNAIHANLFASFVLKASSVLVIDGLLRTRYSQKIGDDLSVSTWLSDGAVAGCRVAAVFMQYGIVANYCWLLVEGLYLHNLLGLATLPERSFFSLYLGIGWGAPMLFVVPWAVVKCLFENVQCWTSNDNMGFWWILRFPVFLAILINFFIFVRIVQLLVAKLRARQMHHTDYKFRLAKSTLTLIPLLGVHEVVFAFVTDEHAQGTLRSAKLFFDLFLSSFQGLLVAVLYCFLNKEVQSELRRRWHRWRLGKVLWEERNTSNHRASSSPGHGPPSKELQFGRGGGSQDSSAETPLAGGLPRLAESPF
Sequence of Substance-P receptor (P25103 whole entry): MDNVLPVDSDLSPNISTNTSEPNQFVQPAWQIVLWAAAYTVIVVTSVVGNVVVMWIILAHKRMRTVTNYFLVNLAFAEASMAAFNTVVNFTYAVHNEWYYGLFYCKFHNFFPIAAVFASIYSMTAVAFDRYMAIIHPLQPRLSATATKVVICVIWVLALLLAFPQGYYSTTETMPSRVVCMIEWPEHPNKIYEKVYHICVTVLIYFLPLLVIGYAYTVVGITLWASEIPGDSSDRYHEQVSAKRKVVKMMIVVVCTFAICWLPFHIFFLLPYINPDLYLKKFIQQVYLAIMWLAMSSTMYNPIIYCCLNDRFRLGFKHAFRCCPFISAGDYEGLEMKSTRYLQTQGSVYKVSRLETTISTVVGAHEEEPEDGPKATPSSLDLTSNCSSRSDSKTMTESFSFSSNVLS

With Cc1cn([C@H]2C=C[C@@H](CO)O2)c(=O)[nH]c1=O [STAVUDINE] the AC50 [1] was over 10 µM, the AC50 [2] was over 10 µM and the AC50 (Progesterone receptor) was over 30 µM. For the same compound, the AC50 (Glucagon receptor) was over 30 µM, the AC50 (Substance-P receptor) was over 10 µM and the AC50 [3] was over 30 µM. The AC50 [4] was over 30 µM.

CS(=O)(=O)c1ccc(C2=C(c3ccccc3)C(=O)OC2)cc1 [ROFECOXIB] was tested, and the AC50 [1] was over 10 µM, the AC50 [2] was over 10 µM and the AC50 (Progesterone receptor) was over 30 µM. The AC50 (Glucagon receptor) was over 30 µM, the AC50 (Substance-P receptor) was over 10 µM and the AC50 [3] was over 30 µM.

In the case of Cn1nnc2c(C(N)=O)ncn2c1=O [TEMOZOLOMIDE], the AC50 [5] is reported as over 30 µM, the AC50 [1] is reported as over 10 µM and the AC50 [2] is reported as over 10 µM. It also gave an AC50 (Progesterone receptor) of over 30 µM, an AC50 (Glucagon receptor) of over 30 µM and an AC50 [6] of over 30 µM. For the same compound, the AC50 (Substance-P receptor) was over 10 µM and the AC50 [3] was over 30 µM.

CC[C@H]1OC(=O)[C@H](C)[C@@H](O[C@H]2C[C@@](C)(OC)[C@@H](O)[C@H](C)O2)[C@H](C)[C@@H](O[C@@H]2O[C@H](C)C[C@H](N(C)C)[C@H]2O)[C@](C)(O)C[C@@H](C)CN(C)[C@H](C)[C@@H](O)[C@]1(C)O [AZITHROMYCIN] showed an AC50 [1] of over 10 µM, an AC50 [2] of over 10 µM and an AC50 (Progesterone receptor) of over 30 µM. The AC50 (Glucagon receptor) was over 30 µM, the AC50 (Substance-P receptor) was over 10 µM and the AC50 [3] was over 30 µM. For the same compound, the AC50 [4] was over 30 µM.

For NCC(CC(=O)O)c1ccc(Cl)cc1 (centres undefined) [BACLOFEN], the AC50 [5] was over 30 µM, the AC50 [1] was over 10 µM and the AC50 [2] was over 10 µM. It also gave an AC50 (Progesterone receptor) of over 30 µM, an AC50 (Glucagon receptor) of over 30 µM and an AC50 [6] of over 30 µM. The AC50 (Substance-P receptor) was over 10 µM and the AC50 [3] was over 30 µM.

CCOC(=O)[C@H](CCc1ccccc1)N[C@@H](C)C(=O)N1[C@H](C(=O)O)C[C@@H]2CCC[C@@H]21 showed an AC50 [1] of over 10 µM, an AC50 [2] of over 10 µM and an AC50 (Progesterone receptor) of over 30 µM. For the same compound, the AC50 (Glucagon receptor) was over 30 µM, the AC50 (Substance-P receptor) was over 10 µM and the AC50 [3] was over 30 µM.

Cc1cn([C@H]2C[C@H](N=[N+]=[N-])[C@@H](CO)O2)c(=O)[nH]c1=O [ZIDOVUDINE] was tested, and the AC50 [1] was over 10 µM, the AC50 [2] was over 10 µM and the AC50 (Progesterone receptor) was over 30 µM. It also gave an AC50 (Glucagon receptor) of over 30 µM, an AC50 (Substance-P receptor) of over 10 µM and an AC50 [3] of over 30 µM. The AC50 [4] was over 30 µM.

CN(C)CCC(c1ccc(Cl)cc1)c1ccccn1 (centres undefined) [CHLORPHENIRAMINE] showed an AC50 [1] of over 10 µM, an AC50 [2] of over 10 µM and an AC50 (Progesterone receptor) of over 30 µM. It also gave an AC50 (Glucagon receptor) of over 30 µM, an AC50 (Substance-P receptor) of over 10 µM and an AC50 [3] of over 30 µM.

For Cc1c(C(=O)NN2CCCCC2)nn(-c2ccc(Cl)cc2Cl)c1-c1ccc(Cl)cc1 [RIMONABANT], the AC50 [5] was 17 µM, the AC50 [1] was over 10 µM and the AC50 [2] was 13.7 µM. For the same compound, the AC50 (Progesterone receptor) was over 30 µM, the AC50 (Glucagon receptor) was over 30 µM and the AC50 [6] was over 30 µM. For the same compound, the AC50 (Substance-P receptor) was over 10 µM and the AC50 [3] was over 30 µM.

In the case of CC1=C(C(=O)O)N2C(=O)[C@@H](NC(=O)[C@H](N)c3ccccc3)[C@H]2SC1 [CEPHALEXIN ANHYDROUS], the AC50 [1] is reported as over 10 µM, the AC50 [2] is reported as over 10 µM and the AC50 (Progesterone receptor) is reported as over 30 µM. It also gave an AC50 (Glucagon receptor) of over 30 µM, an AC50 (Substance-P receptor) of over 10 µM and an AC50 [3] of over 30 µM.
